Entries after “also recorded” stand apart in the source; their conditions may differ.
Tests used:
[1] = system: telomerase; assay: Telomerase activity (TRAP) in vitro, MASMs of arteriosclerosis models; assay type: cell-based, mouse; settings: MASMs of ApoE−/− control group, cultured 1 day with SL
Description: In FIG. 20, the telomerase activity was measured using TRAP protocol (Wright et al., 1995). In summary, cell pellets were lysed in CHAPS lysis solvent (containing ribonuclease inhibitor), followed by incubation at 4° C. for 30 minutes. Cell extracts ([…]) were TRAPeze reaction mix (telomerase substrate (TS) primer, fluorescent-labeled RP (reverse) primer, control standard template, and sulforhodamine-labeled standard K2 primer). The TS primer was elongated at 30° C. for 30 minutes, and then PCR was performed. The fluorescence of the thus obtained TRAP product was measured using a fluorescent plate reader to quantify telomerase activity. Relative telomerase activity was normalized by the ratio of native […] to sulforhodamine (internal control standard), expressed as a percentage. Fluorescein (M0250) was purchased from Marker Gene Technologies, Inc. H2-dichlorofluorescin diacetate (DCFDA) was purchased from Molecular Probes. MitoSOX™ Red, MitoTracker Green FM, and MitoTracker® Orange CMTMRos (MTO) were purchased from Invitrogen. 10,000× SYBR® Gold dye was purchased from Molecular Probes, Inc. Nuclear/Cytosol fractionation kit (K266-100) was purchased from BioVision. TRAPeze® XL telomerase detection kit (S7707) was purchased from MILLIPORE. Telomere PNA FISH Kit/Cy3 (K5326) was purchased from Dako. […]

[2] = system: PGC-1α and related genes; assay: Gene expression by SL treatment in normal mouse models; assay type: in vivo; settings: normal C57BL/6 mice, oral 0.1 mg/kg/day, 10 weeks, organs, skeletal muscles, abdominal fat
Description: In order to investigate relative gene expression changes by organs compared with before SL (3′-SL & 6′-SL) aministration, 4-week-old C57BL/6 mice were purchased from Dooyeul Biotech (Korea). Water was freely accessible, and a commercially available pellet feed (Dooyeul Biotech, Korea) was given for two weeks. […]
Sialyllactose or deionized water was orally administered daily. […] The dietary intake and body weight change were measured every 5 days. […]
The gene expression changes by administration of the SL (3′-SL & 6′-SL) compositions were quantitatively compared for eight main organs (heart, hippocampus, brain, spinal cord, lung, liver, spleen, and kidney), three skeletal muscles (soleus muscle, quadriceps femoris muscle, and gastrocnemius muscle), and abdominal fat. RNA was extracted by TRIzol agent (Invitrogen). cDNA was synthesized by using RNA, which has been extracted as above and quantified, and a reverse transcription system (Promega, USA). The expression patterns of PGC-1α and related genes were measured by using pre-designed primers and probes (Applied Biosystems; PGC-1α, Mm00447181_m1, GAPDH, and Mm99999915_q1) for the synthesized cDNA and analysis targets (Fndc5, PGC-1α, Erra, UCP1, SOD2, and GPX1). […]

Row | Compound | telomerase activity in MASMs (in vitro) [1] | expression levels of analysis targets (Fndc5, PGC-1α, Erra, UCP1) vs control group ([2]; 0.1 mg/kg/day) | expression levels of analysis targets (Fndc5, PGC-1α, Erra, UCP1) vs control group [2]
1 | CC(=O)N[C@H]1[C@H]([C@H](O)[C@H](O)CO)O[C@@](O[C@H]2[C@@H](O)[C@@H](CO)O[C@@H](O[C@H]3[C@H](O)[C@@H](O)C(O)O[C@@H]3CO)[C@@H]2O)(C(=O)O)C[C@@H]1O (stereo partly drawn) [3′-SL, α-NeuNAc-(2→3)-β-D-Gal-(1→4)-D-Glc] | increased telomerase activity | higher than the negative control group; also recorded: less effective than the 6′-SL administration groups | –
2 | CC(=O)N[C@H]1[C@H]([C@H](O)[C@H](O)CO)O[C@@](OC[C@H]2O[C@@H](O[C@H]3[C@H](O)[C@@H](O)[C@H](O)O[C@@H]3CO)[C@H](O)[C@@H](O)[C@H]2O)(C(=O)O)C[C@@H]1O [6′-SL, α-NeuNAc-(2→6)-β-D-Gal-(1→4)-D-Glc] | increased telomerase activity | – | higher than the negative control group
